In PMC4257840 (Journal of Medicinal Chemistry, 2014) one finds IC50 and inhibition data, which are given here for one compound.

Common to all, as to format: biochemical
Experiment [1] concerns the target human recombinant procathepsin K (activated) (Homo sapiens, UniProt P43235). Kind of experiment: Protease counter-screening: Cathepsin K. As to the method:
(§1) Appendix 7. Protease Counter -Screening
(§2) Protease counter-screeni ng was performed using the methods described below. Initial screening was conducted in duplicate using a single test substance concentration of 10 µ M .
(§3) Additional assays were conducted in replicate for selected pairin gs of test s ubstance and enz yme in order to enable the determination of IC50 values using conventional procedures.
(§4) Determination of K i was made using the Batch K i program (Biokin Ltd, Pullman, WA) to derive values from the Morrison equation: […]
Where [E ] is the active enz yme concentration, Kiapp is the apparent inhibition const ant, v 0 is the control velocit y in the absence of inhibitors, vb is the background velocity, v is the initial reaction velocit y in the presence of inhibitor, and I is the inhibitor concentration.Thence:
Where [S ] is the substrate concentration and KM is the Michealis constant.
Caspase 1: Activity against human recombinant caspase 1 expressed in E. coli was tested using Ac-YVAD- AMC as the substrate. […]
The amount of MCA-P LG formed was measured spectrofluorimetricall y at 340 nm/400 nm. […]
AMC formation was read at 360 nm/465 nm.
Cathepsin L2: Human recombinant cathepsin L2 expressed in NS0 cells was used as the enzyme source. […] Form ation of AMC was measured at 360 […]
The amount of AMC formed was read spectrofluorimetricall y at 360 nm/465 nm. […]
In general terms: A counterscreen serves to expose hits that act by an unwanted route or on another target.

The target in experiment [2] is T1, angiotensin converting enzyme from rabbit lung (Oryctolagus cuniculus, UniProt P12822).
T1 construct: rabbit lung; from tissue; host or cells: rabbit lung
Kind of experiment: Protease counter-screening: Angiotensin converting enzyme. The protocol: as §1, §2, §3, §4
MMP-9: Human recombinant MMP-9 proenz yme ex pressed in mammalian cells was activated with APMA for 60 min at 37 °C. […] The amount of MCA-P LG formed was read spectrofluorimetricall y at 340 nm/400 nm.
ADAM-17/TACE: Human recombinant ADAM-17 expressed in Sf21 insect cells was used as enz yme sour ce. […] T he amount of MCA-P LAQA formed w as read spectro fluorimetricall y at 340 nm/400 nm.
Angiotensin converting enzyme: Test compound or vehicle was pre- incubated in modified HEPES buffer pH 7.5 for 15 min at 25 °C with 31 mU/mL angiotensin converting enz yme from rabbit lung. […] The amount of substrate remaining was read spectrophotometricall y at 340 nm and used to deri ve the extent of reaction and its inhibition. […]

A further experiment concerns the target T2, Human liver cathepsin L (Homo sapiens, UniProt P07711).
T2 construct: Human liver cathepsin L was used as the; from tissue; host or cells: human liver
Kind of experiment: Protease counter-screening: Cathepsin L.

T1 sequence (P12822 34-1310): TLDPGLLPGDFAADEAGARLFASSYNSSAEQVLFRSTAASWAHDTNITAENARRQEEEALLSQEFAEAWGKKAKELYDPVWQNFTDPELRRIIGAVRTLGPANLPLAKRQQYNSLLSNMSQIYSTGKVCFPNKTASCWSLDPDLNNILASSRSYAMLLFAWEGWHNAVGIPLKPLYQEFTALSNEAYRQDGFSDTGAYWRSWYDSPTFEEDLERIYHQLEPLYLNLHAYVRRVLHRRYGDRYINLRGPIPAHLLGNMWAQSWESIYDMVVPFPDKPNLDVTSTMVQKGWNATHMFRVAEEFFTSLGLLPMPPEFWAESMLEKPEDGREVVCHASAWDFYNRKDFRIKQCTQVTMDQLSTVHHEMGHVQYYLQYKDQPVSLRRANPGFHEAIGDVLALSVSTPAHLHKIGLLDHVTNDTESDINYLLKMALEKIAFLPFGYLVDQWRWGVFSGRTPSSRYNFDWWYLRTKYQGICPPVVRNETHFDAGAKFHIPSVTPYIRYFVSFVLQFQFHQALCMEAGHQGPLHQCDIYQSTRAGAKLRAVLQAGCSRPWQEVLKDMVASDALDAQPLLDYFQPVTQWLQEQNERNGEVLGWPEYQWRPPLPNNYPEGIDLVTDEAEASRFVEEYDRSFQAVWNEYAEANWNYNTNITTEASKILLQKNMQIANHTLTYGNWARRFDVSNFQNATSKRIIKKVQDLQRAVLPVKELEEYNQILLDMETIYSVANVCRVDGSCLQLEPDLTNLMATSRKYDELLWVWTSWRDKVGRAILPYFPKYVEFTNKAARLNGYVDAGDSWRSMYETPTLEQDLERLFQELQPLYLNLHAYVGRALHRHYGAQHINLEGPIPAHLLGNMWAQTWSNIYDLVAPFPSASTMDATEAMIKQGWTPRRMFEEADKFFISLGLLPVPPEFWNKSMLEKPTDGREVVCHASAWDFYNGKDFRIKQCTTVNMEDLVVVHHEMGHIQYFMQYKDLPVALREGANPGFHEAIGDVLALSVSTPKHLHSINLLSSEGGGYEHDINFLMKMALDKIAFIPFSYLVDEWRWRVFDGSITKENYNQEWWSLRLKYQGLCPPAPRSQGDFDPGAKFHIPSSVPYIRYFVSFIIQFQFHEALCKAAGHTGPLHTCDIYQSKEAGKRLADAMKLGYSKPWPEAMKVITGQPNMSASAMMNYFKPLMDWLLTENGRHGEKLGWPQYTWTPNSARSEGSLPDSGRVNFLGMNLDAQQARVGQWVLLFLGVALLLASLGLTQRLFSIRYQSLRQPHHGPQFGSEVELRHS
T2 sequence (P07711 114-333): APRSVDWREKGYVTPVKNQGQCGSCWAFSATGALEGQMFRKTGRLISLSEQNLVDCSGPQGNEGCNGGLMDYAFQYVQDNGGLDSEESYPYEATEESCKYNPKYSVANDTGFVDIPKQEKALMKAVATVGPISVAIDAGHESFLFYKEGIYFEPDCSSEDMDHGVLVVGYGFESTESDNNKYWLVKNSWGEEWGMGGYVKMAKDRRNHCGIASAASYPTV
human recombinant procathepsin K (activated), sequence (P43235 115-329): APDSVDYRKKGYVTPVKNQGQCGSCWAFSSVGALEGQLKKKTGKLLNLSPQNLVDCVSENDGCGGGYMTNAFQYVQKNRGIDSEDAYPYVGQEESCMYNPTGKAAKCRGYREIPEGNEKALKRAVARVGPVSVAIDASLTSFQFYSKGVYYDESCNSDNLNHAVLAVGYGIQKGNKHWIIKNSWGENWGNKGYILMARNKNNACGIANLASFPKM

For the compound `CC(C)[C@H](NC(=O)[C@H](C)NC(=O)[C@@H](NC(=O)c1ccccc1)C(C)(C)C)C(=O)C(=O)NCc1ccccc1` [Compound 38, N-{(S)-1-[(S)-1-((S)-1-Benzylaminooxalyl-2-methyl-propylcarbamoyl)-ethylcarbamoyl]-2,2-dimethyl-propyl}-benzamide], the 50% inhibitory concentration (IC50) (as a rule, the concentration that inhibits the measured activity by half) in experiment [1] came to 2920 nM. Moreover, the inhibition – broadly, the drop in the measured response relative to a control, in per cent – at 10 µM stood at 0% in experiment [2] and 34% against Human liver cathepsin L.
